From the supplement of paper PMC8617591

Columns and labels:
[1] = test system: Mycobacterium tuberculosis Erdman (autoluminescent); assay: FIC90 (Loewe) at 90% inhibition (log2); higher = more antagonistic
Protocol: (§1)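 DiaMOND equipotent two-drug combination dose responses against autoluminescent M. tuberculosis Erdman in 8 in vitro models. Read-out is OD600, or luminescence for the intracellular and dormancy models, normalised to untreated wells. Hill-fit Einf, AUC25 and GRinf are potency metrics; FIC50 and FIC90 are Loewe-additivity fractional inhibitory concentrations, given as log2 (negative = synergy). Replicates are averaged.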

[2] = test system: Mycobacterium tuberculosis Erdman (autoluminescent); assay: FIC50 (Loewe) at 50% inhibition (log2); higher = more antagonistic
Protocol: as §1

[3] = test system: Mycobacterium tuberculosis Erdman (autoluminescent); assay: Einf, fitted maximum growth inhibition of combination (fraction); higher = stronger maximal inhibition
Protocol: as §1

[4] = test system: Mycobacterium tuberculosis Erdman (autoluminescent); assay: AUC25, normalised area under dose response up to IC25 (fraction (0-1)); higher = more potent at low dose
Protocol: as §1

[5] = test system: Mycobacterium tuberculosis Erdman (autoluminescent); assay: GRinf, maximum normalised growth rate inhibition (unitless (-1 to 1)); higher = less effect (negative = killing)
Protocol: as §1

O=[N+]([O-])c1cn2c(n1)OC[C@@H](OCc1ccc(OC(F)(F)F)cc1)C2 [pretomanid] + CO[C@H]1/C=C/O[C@@]2(C)Oc3c(C)c(O)c4c(O)c(c(/C=N/N5CCN(C6CCCC6)CC5)c(O)c4c3C2=O)NC(=O)/C(C)=C\C=C\[C@H](C)[C@H](O)[C@@H](C)[C@@H](O)[C@@H](C)[C@H](OC(C)=O)[C@@H]1C [rifapentine]
Conditions | AUC25, [4] | Einf, [3] | FIC50, [2] | FIC90, [1] | GRinf, [5]
in vitro model: acidic pH 5.7, time point: constant (~7 days, model-specific) | 0.101 | 0.925 | 0.285 | – | -0.447
in vitro model: acidic pH 5.7, time point: terminal (~4-5 doublings, model-specific) | 0.0525 | 0.991 | 0.359 | 0.243 | -0.276
in vitro model: intracellular J774, time point: constant = terminal | – | 0.991 | – | -0.454 | -0.347

Conditions | AUC25, [4] | Einf, [3] | FIC50, [2] | FIC90, [1] | GRinf, [5]
in vitro model: butyrate, time point: constant (~7 days, model-specific) | 0.0925 | 0.929 | 0.307 | 0.357 | -0.0285
in vitro model: butyrate, time point: terminal (~4-5 doublings, model-specific) | 0.0679 | 0.963 | 0.223 | 0.114 | -0.0133
in vitro model: cholesterol 0.05 mM, time point: constant (~7 days, model-specific) | 0.114 | 0.732 | 0.253 | – | -0.354
in vitro model: cholesterol 0.05 mM, time point: terminal (~4-5 doublings, model-specific) | 0.0965 | 0.93 | 0.285 | 1.63 | -0.257
in vitro model: cholesterol-high 0.2 mM, time point: constant (~7 days, model-specific) | 0.0774 | 0.911 | 0.634 | – | -0.247
in vitro model: cholesterol-high 0.2 mM, time point: terminal (~4-5 doublings, model-specific) | 0.0546 | 0.979 | 0.806 | 0.721 | -0.463
in vitro model: dormancy (butyrate + nitrate, low O2), time point: constant (~7 days, model-specific) | 0.0571 | 0.904 | 0.527 | 0.277 | 0.192
in vitro model: dormancy (butyrate + nitrate, low O2), time point: terminal (~4-5 doublings, model-specific) | 0.0438 | 0.983 | 0.383 | 0.448 | -0.148
in vitro model: standard 7H9 glycerol, time point: constant = terminal | 0.0697 | 0.928 | -0.158 | 0.519 | 0.0428
in vitro model: valerate, time point: constant (~7 days, model-specific) | 0.127 | 0.892 | 0.377 | – | -0.0483
in vitro model: valerate, time point: terminal (~4-5 doublings, model-specific) | 0.0738 | 0.954 | 0.21 | 0.484 | -0.107

CC(=O)NC[C@H]1CN(c2ccc(N3CCOCC3)c(F)c2)C(=O)O1 [linezolid] + COc1c(N2C[C@@H]3CCCN[C@@H]3C2)c(F)cc2c(=O)c(C(=O)O)cn(C3CC3)c12 [moxifloxacin]
Conditions | AUC25, [4] | Einf, [3] | FIC50, [2] | FIC90, [1] | GRinf, [5]
in vitro model: acidic pH 5.7, time point: constant (~7 days, model-specific) | 0.144 | 0.799 | -0.0102 | – | -0.581
in vitro model: acidic pH 5.7, time point: terminal (~4-5 doublings, model-specific) | 0.102 | 0.963 | 0.872 | 0.52 | -0.271
in vitro model: intracellular J774, time point: constant = terminal | – | 0.909 | – | 0.463 | -0.14

Conditions | AUC25, [4] | Einf, [3] | FIC50, [2] | FIC90, [1] | GRinf, [5]
in vitro model: butyrate, time point: constant (~7 days, model-specific) | 0.0878 | 0.885 | 0.397 | 1.22 | 0.0908
in vitro model: butyrate, time point: terminal (~4-5 doublings, model-specific) | 0.0618 | 0.939 | 0.323 | 0.392 | 0.0886
in vitro model: cholesterol 0.05 mM, time point: constant (~7 days, model-specific) | 0.124 | 0.679 | -0.444 | – | -0.0664
in vitro model: cholesterol 0.05 mM, time point: terminal (~4-5 doublings, model-specific) | 0.137 | 0.938 | 0.0528 | -0.309 | -0.215
in vitro model: cholesterol-high 0.2 mM, time point: constant (~7 days, model-specific) | 0.123 | 0.95 | -0.129 | 0.814 | -0.546
in vitro model: cholesterol-high 0.2 mM, time point: terminal (~4-5 doublings, model-specific) | 0.125 | 1 | -0.211 | 0.433 | -0.844
in vitro model: dormancy (butyrate + nitrate, low O2), time point: constant (~7 days, model-specific) | 0.0537 | 0.914 | 0.869 | 0.521 | 0.139
in vitro model: dormancy (butyrate + nitrate, low O2), time point: terminal (~4-5 doublings, model-specific) | 0.0589 | 0.964 | 0.671 | 0.922 | 0.061
in vitro model: standard 7H9 glycerol, time point: constant = terminal | 0.0831 | 0.955 | 0.52 | 0.972 | -0.197
in vitro model: valerate, time point: constant (~7 days, model-specific) | 0.11 | 0.856 | 0.339 | – | 0.0191
in vitro model: valerate, time point: terminal (~4-5 doublings, model-specific) | 0.0688 | 0.932 | 0.36 | 0.679 | 0.0477

CC(C)/N=c1\cc2n(-c3ccc(Cl)cc3)c3ccccc3nc-2cc1Nc1ccc(Cl)cc1 [clofazimine] + NNC(=O)c1ccncc1 [isoniazid]
Conditions | AUC25, [4] | Einf, [3] | FIC50, [2] | FIC90, [1] | GRinf, [5]
in vitro model: acidic pH 5.7, time point: constant (~7 days, model-specific) | 0.1 | 0.747 | 0.122 | – | 0.074
in vitro model: acidic pH 5.7, time point: terminal (~4-5 doublings, model-specific) | 0.0893 | 0.942 | 0.116 | 0.154 | -0.114
in vitro model: intracellular J774, time point: constant = terminal | – | 0.951 | – | 0.406 | -0.209

Conditions | AUC25, [4] | Einf, [3] | FIC50, [2] | FIC90, [1] | GRinf, [5]
in vitro model: butyrate, time point: constant (~7 days, model-specific) | 0.0814 | 0.947 | 0.425 | 0.813 | -0.079
in vitro model: butyrate, time point: terminal (~4-5 doublings, model-specific) | 0.0801 | 0.988 | 0.35 | 0.54 | -0.117
in vitro model: cholesterol 0.05 mM, time point: constant (~7 days, model-specific) | 0.114 | 0.719 | 0.223 | – | -0.06
in vitro model: cholesterol 0.05 mM, time point: terminal (~4-5 doublings, model-specific) | 0.126 | 0.928 | 0.688 | 0.0937 | -0.181
in vitro model: cholesterol-high 0.2 mM, time point: constant (~7 days, model-specific) | 0.118 | 0.93 | 0.123 | -0.0588 | -0.856
in vitro model: cholesterol-high 0.2 mM, time point: terminal (~4-5 doublings, model-specific) | 0.106 | 0.999 | 0.197 | 0.419 | -0.882
in vitro model: dormancy (butyrate + nitrate, low O2), time point: constant (~7 days, model-specific) | 0.0958 | 0.92 | -0.176 | -0.0674 | 0.255
in vitro model: dormancy (butyrate + nitrate, low O2), time point: terminal (~4-5 doublings, model-specific) | 0.058 | 0.981 | -0.116 | -0.0457 | -0.0683
in vitro model: standard 7H9 glycerol, time point: constant = terminal | 0.105 | 0.964 | -0.0807 | 0.0617 | -0.146
in vitro model: valerate, time point: constant (~7 days, model-specific) | 0.144 | 0.925 | 0.0757 | 1.95 | -0.0991
in vitro model: valerate, time point: terminal (~4-5 doublings, model-specific) | 0.0841 | 0.937 | -0.0577 | 0.814 | 0.0302
